# Structures can show the parent of a compound that is named as a salt.
# Tested on: rabbits (New Zealand White)
# Experiment: Ocular hypotensive effect in rabbits
# Format: in vivo, rabbit
# Conditions: male New Zealand White rabbits, 0.04 mL eye drop, concentration of 1% (w/v) or lower, maximum ocular hypotensive rate vs vehicle-treated contralateral eye
# Description: The compound of the present invention was administered to rabbits (New Zealand White, sex: male, 3 to 6 per group) and evaluated for its ocular hypotensive effect.
# Each test compound was dissolved in a vehicle 1 (1.04 g of sodium dihydrogen phosphate dihydrate and 0.5 g of sodium chloride dissolved in purified water and then adjusted to pH 7.0 with sodium hydroxide to make the total amount to 100 mL) or a vehicle 2 (2% (w/v) aqueous boric acid solution) to prepare a test compound solution with a predetermined concentration.
# The intraocular pressures of the rabbits were measured using Tiolat TonoVet handheld tonometer immediately before administration of test compound. The test compound solution and the vehicle were dropped at a volume of 0.04 mL to one eye and the contralateral eye, respectively, and the intraocular pressures were measured over time in the same way as above. The rate of the intraocular pressure of the eye receiving the test compound solution to that of the eye receiving the vehicle was calculated as an ocular hypotensive rate.
row,SMILES,Ocular hypotensive activity
1,"C[C@H](CNCCC#N)NS(=O)(=O)c1ccc2cnccc2c1.Cl [Example 73, (R)—N-{1-(2-cyanoethylamino)propan-2-yl}isoquinoline-6-sulfonamide hydrochloride]",++ (maximum ocular hypotensive rate of 15% or more)
2,"C[C@H](CNCCc1cc2ccccc2[nH]1)NS(=O)(=O)c1ccc2cnccc2c1.Cl [Example 74, (R)—N-[1-{2-(1H-indol-2-yl)ethylamino}propan-2-yl]isoquinoline-6-sulfonamide hydrochloride]",++ (maximum ocular hypotensive rate of 15% or more)
3,"C[C@H](CNCCc1cc2ccccc2o1)NS(=O)(=O)c1ccc2cnccc2c1 [Example 75, (R)—N-[1-{(2-(benzofuran-2-yl)ethylamino}propan-2-yl]isoquinoline-6-sulfonamidedihydrochloride]",++ (maximum ocular hypotensive rate of 15% or more)
4,"C[C@H](CNCCc1ccc(F)cc1)NS(=O)(=O)c1cc2ccncc2cc1Br.Cl [Example 76, (R)-7-bromo-N-{1-(4-fluorophenethylamino)propan-2-yl}-isoquinoline-6-sulfonamide hydrochloride]",++ (maximum ocular hypotensive rate of 15% or more)
5,"C[C@H](CNCCc1ccc(F)cc1)NS(=O)(=O)c1ccc2cnccc2c1Br.Cl [Example 77, (R)-5-bromo-N-{1-(4-fluorophenethylamino)propan-2-yl}-isoquinoline-6-sulfonamide hydrochloride]",+ (maximum ocular hypotensive rate of 5% or more and less than 15%)
6,"C=C(C)CNC[C@@H](C)NS(=O)(=O)c1ccc2cnccc2c1.Cl [Example 78, (R)—N-{1-(2-methylallylamino)propan-2-yl}isoquinoline-6-sulfonamide hydrochloride]",++ (maximum ocular hypotensive rate of 15% or more)
7,"Cc1ncsc1CCNC[C@@H](C)NS(=O)(=O)c1ccc2cnccc2c1 [Example 79, (R)—N-[1-{2-(4-methylthiazol-5-yl)ethylamino}propan-2-yl]isoquinoline-6-sulfonamide dihydrochloride]",++ (maximum ocular hypotensive rate of 15% or more)
8,"C[C@H](CNCCCc1c[nH]c2ccccc12)NS(=O)(=O)c1ccc2cnccc2c1 [Example 80, (R)—N-[1-{3-(1H-indol-3-yl)propylamino}propan-2-yl]isoquinoline-6-sulfonamide dihydrochloride]",++ (maximum ocular hypotensive rate of 15% or more)
9,"C[C@H](CNCCc1ccccn1)NS(=O)(=O)c1ccc2cnccc2c1.Cl [Example 81, (R)—N-[1-{2-(pyridin-2-yl)ethylamino}propan-2-yl]isoquinoline-6-sulfonamide hydrochloride]",++ (maximum ocular hypotensive rate of 15% or more)
10,"C[C@H](CNCC(C)(O)c1ccccc1)NS(=O)(=O)c1ccc2cnccc2c1.Cl (stereo partly drawn) [Example 85, N-{(2R)-1-(2-hydroxy-2-phenylpropylamino)propan-2-yl}isoquinoline-6-sulfonamide hydrochloride]",++ (maximum ocular hypotensive rate of 15% or more)
11,"C[C@H](CNCC(O)c1cccnc1)NS(=O)(=O)c1ccc2cnccc2c1 (stereo partly drawn) [Example 88, N-[(2R)-1-{2-hydroxy-2-(pyridin-3-yl)ethylamino}propan-2-yl]isoquinoline-6-sulfonamide dihydrochloride]",+ (maximum ocular hypotensive rate of 5% or more and less than 15%)
12,"C[C@H](CNCC(O)c1cccc(Cl)c1)NS(=O)(=O)c1ccc2cnccc2c1 (stereo partly drawn) [Example 91, N-[(2R)-1-{2-(3-chlorophenyl)-2-hydroxyethylamino}propan-2-yl]isoquinoline-6-sulfonamide dihydrochloride]",++ (maximum ocular hypotensive rate of 15% or more)
13,"C[C@H](CNCCc1ccc(-c2ccccc2)cc1)NS(=O)(=O)c1ccc2cnccc2c1 [Example 92, (R)—N-[1-{2-(biphenyl-4-yl)ethylamino}propan-2-yl]isoquinoline-6-sulfonamide dihydrochloride]",++ (maximum ocular hypotensive rate of 15% or more)
14,"C[C@H](CNCCc1ccc(-c2ccncc2)cc1)NS(=O)(=O)c1ccc2cnccc2c1 [Example 93, (R)—N-[1-{4-(pyridin-4-yl)phenethylamino}propan-2-yl]isoquinoline-6-sulfonamide trihydrochloride]",++ (maximum ocular hypotensive rate of 15% or more)
15,"C[C@H](CNCCc1c[nH]nn1)NS(=O)(=O)c1ccc2cnccc2c1.Cl [Example 94, (R)—N-[1-{2-(1H-1,2,3-triazol-4-yl)ethylamino}propan-2-yl]isoquinoline-6-sulfonamide hydrochloride]",++ (maximum ocular hypotensive rate of 15% or more)
16,"C[C@H](CNCCc1nnn[nH]1)NS(=O)(=O)c1ccc2cnccc2c1 [Example 95, (R)—N-[1-{2-(1H-tetrazol-5-yl)ethylamino}propan-2-yl]isoquinoline-6-sulfonamide dihydrochloride]",+ (maximum ocular hypotensive rate of 5% or more and less than 15%)
17,"CCCCNC[C@@H](C)N(CC)S(=O)(=O)c1ccc2cnccc2c1.Cl [Example 96, (R)—N-[1-(butylamino)propan-2-yl]-N-ethylisoquinoline-6-sulfonamide hydrochloride]",++ (maximum ocular hypotensive rate of 15% or more)
18,"C[C@H](CNCCc1ccccc1)N(CCO)S(=O)(=O)c1ccc2cnccc2c1 [Example 97, (R)—N-(2-hydroxyethyl)-N-{1-(phenethylamino)propan-2-yl}isoquinoline-6-sulfonamide dihydrochloride]",++ (maximum ocular hypotensive rate of 15% or more)
19,"C[C@H](CN(C)CCc1ccccc1)NS(=O)(=O)c1ccc2cnccc2c1 [Example 99, (R)—N-[1-{methyl(phenethyl)amino}propan-2-yl]isoquinoline-6-sulfonamide dihydrochloride]",++ (maximum ocular hypotensive rate of 15% or more)
20,"C[C@H](CN(CCc1ccccc1)C(=O)CN)NS(=O)(=O)c1ccc2cnccc2c1.Cl [Example 100, (R)-2-amino-N-[2-(isoquinoline-6-sulfonamido)propyl]-N-phenylethylacetamide hydrochloride]",++ (maximum ocular hypotensive rate of 15% or more)
21,"C[C@H](CNC(=O)Cc1ccccc1)NS(=O)(=O)c1ccc2cnccc2c1.Cl [Example 103, (R)—N-{2-(isoquinoline-6-sulfonamido)propyl}-2-phenylacetamide hydrochloride]",++ (maximum ocular hypotensive rate of 15% or more)
22,"C[C@H](CNCC(=O)c1ccccc1)NS(=O)(=O)c1ccc2cnccc2c1 [Example 104, (R)—N-{1-(2-oxo-2-phenylethylamino)propan-2-yl}isoquinoline-6-sulfonamide dihydrochloride]",++ (maximum ocular hypotensive rate of 15% or more)
23,"C[C@H](CNCC(O)COc1ccccc1)NS(=O)(=O)c1ccc2cnccc2c1 (stereo partly drawn) [Example 108, N-{(2R)-1-(2-hydroxy-3-phenoxypropylamino)propan-2-yl}isoquinoline-6-sulfonamide dihydrochloride]",++ (maximum ocular hypotensive rate of 15% or more)
24,"C[C@H](CNCCc1ccccc1)NS(=O)(=O)c1ccc2c(N)nccc2c1.Cl [Example 109, (R)-1-amino-N-{1-(phenethylamino)propan-2-yl}isoquinoline-6-sulfonamide hydrochloride]",+ (maximum ocular hypotensive rate of 5% or more and less than 15%)
25,"C[C@H](CNCCc1ccccc1)NS(=O)(=O)c1ccc2c(O)nccc2c1.Cl [Example 110, (R)—N-{1-(phenethylamino)propan-2-yl}-1-hydroxyisoquinoline-6-sulfonamide hydrochloride]",++ (maximum ocular hypotensive rate of 15% or more)
26,"C[C@H](CNCCc1ccccc1)NS(=O)(=O)c1ccc2c(SCCN)nccc2c1 [Example 111, (R)-1-(2-aminoethylthio)-N-{1-(phenethylamino)propan-2-yl}isoquinoline-6-sulfonamide trihydrochloride]",+ (maximum ocular hypotensive rate of 5% or more and less than 15%)
27,"Cc1cncc2ccc(S(=O)(=O)N[C@H](C)CNCCc3ccccc3)cc12.Cl [Example 112, (R)—N-{1-(phenethylamino)propan-2-yl}-4-methyl-isoquinoline-6-sulfonamide hydrochloride]",++ (maximum ocular hypotensive rate of 15% or more)
28,"Cc1cncc2ccc(S(=O)(=O)N[C@H](C)CNCCc3ccc(F)cc3)cc12.Cl [Example 113, (R)—N-{1-(4-fluorophenethylamino)propan-2-yl}-4-methyl-isoquinoline-6-sulfonamide hydrochloride]",++ (maximum ocular hypotensive rate of 15% or more)
29,"C[C@H](CNCCc1ccccc1)NS(=O)(=O)c1ccc2cncc(-c3ccsc3)c2c1 [Example 115, (R)—N-{1-(phenethylamino)propan-2-yl}-4-(thiophen-3-yl) isoquinoline-6-sulfonamide dihydrochloride]",++ (maximum ocular hypotensive rate of 15% or more)
30,"N[C@H](CNS(=O)(=O)c1ccc2cnccc2c1)Cc1ccccc1 [Example 116, (S)—N-(2-amino-3-phenylpropyl)isoquinoline-6-sulfonamide dihydrochloride]",+ (maximum ocular hypotensive rate of 5% or more and less than 15%)

# From patent US8883792B2, “Substituted isoquinoline derivative” (D. Western Therapeutics Institute, Inc., priority 2010, dated 2014)
